Measurements published in patent US7495027B2, “3-aryl-4-hydroxyfuranone compounds and the human and animal health use thereof” (Wyeth, priority 2003, dated 2009).
Values after ≈ are worked out from the molar mass of the structure shown. Where two headings read alike, the source gives them in different places.

Key:
[1] = system: staphylococci; assay: Minimum inhibitory concentration, microdilution broth method, staphylococci; format: cell-based; settings: Staphylococcus aureus, Mueller-Hinton broth, 18-22 hours at 35° C.
Experimental: (§1) Evaluation of the Minimum Inhibitory Concentration of Test Compounds Against A Variety of Bacterial Strains
(§2) In this evaluation the minimal inhibitory concentration (MIC) of test compounds against Gram positive and Gram negative bacteria is performed using the microdilution broth method as recommended by the National Committee for Clinical Laboratory Standards (Approved Standards M7-A5 2000). Mueller-Hinton broth is used for the enterobacteriaceae, staphylococci and enterococci. Streptococci are also tested in Mueller-Hinton broth supplemented with 5% horse blood (LHB). Test organisms include recent clinical isolates that are resistant to methicillin, penicillin and/or vancomycin. […].

[2] = target: E. coli Uridine-diphosphate-N-acetylmuramoyl-L-alanine: D-glutamate liease, MurD (Escherichia coli, UniProt P14900); assay: biochemical; settings: (E) E. coli enzyme
E. coli Uridine-diphosphate-N-acetylmuramoyl-L-alanine: D-glutamate liease, MurD, sequence (P14900 whole entry): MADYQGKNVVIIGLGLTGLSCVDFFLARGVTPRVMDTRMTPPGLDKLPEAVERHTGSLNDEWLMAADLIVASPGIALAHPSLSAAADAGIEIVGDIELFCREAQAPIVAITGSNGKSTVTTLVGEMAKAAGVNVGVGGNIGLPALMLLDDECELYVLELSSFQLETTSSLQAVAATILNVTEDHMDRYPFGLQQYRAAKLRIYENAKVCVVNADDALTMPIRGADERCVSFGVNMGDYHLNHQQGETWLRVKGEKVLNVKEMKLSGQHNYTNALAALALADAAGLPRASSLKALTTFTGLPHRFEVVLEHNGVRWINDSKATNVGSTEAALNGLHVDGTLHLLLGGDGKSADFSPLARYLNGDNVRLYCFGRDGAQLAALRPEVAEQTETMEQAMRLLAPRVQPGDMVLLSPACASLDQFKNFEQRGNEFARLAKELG
Experimental: S. aureus and E. coli Uridine-diphosphate-N-acetylmuramoyl-L-alanine: D-glutamate liease, MurD
The buffer is prepared from aqueous reagents with the following final concentrations: 83 mM Tris/HCl (pH 8.0), 50 mM MgCl2, and 2 mM ATP.
(§3) Preparation of Enzyme Solution:
(§4) Preparation of Test Compound Solutions:
(§5) All test solutions are prepared in DMSO as 10 mg/mL, then diluted with 50 mM Tris/HCl (pH 8.5) to 100 μg/mL.
(§6) Preparation of Stop Solution:
In this evaluation, the inhibitory activity of a test compound against MurD, the enzyme which catalyzes the fourth step of bacterial cell wall biosynthesis is determined.

[3] = target: E. coli Uridine-diphosphate-N-acetvimuramoyl: L-alanine lipase, MurC (Escherichia coli, UniProt P17952); assay: Inhibitory activity against MurC (E. coli); format: biochemical; settings: (E) E. coli enzyme; for IC50: read-out: MurC IC50 (converted)
E. coli Uridine-diphosphate-N-acetvimuramoyl: L-alanine lipase, MurC, sequence (P17952 whole entry): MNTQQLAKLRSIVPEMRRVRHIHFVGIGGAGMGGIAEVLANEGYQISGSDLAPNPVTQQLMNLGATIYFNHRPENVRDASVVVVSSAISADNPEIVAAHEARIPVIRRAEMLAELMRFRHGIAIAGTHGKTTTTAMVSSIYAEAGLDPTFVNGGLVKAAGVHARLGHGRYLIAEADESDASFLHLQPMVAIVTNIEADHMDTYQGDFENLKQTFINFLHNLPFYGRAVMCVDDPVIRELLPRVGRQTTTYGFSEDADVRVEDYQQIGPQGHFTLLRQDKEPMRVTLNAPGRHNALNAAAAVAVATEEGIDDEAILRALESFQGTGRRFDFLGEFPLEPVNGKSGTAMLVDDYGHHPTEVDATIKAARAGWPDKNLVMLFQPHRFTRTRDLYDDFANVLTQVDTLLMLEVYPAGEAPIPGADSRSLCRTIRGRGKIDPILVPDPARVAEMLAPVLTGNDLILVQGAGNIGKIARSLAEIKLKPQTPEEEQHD
Experimental: S. aureus and E. coli Uridine-diphosphate-N-acetvimuramoyl: L-alanine lipase, MurC
The buffer is prepared from aqueous reagents with the following final concentrations: 83 mM Tris/HCl (pH 8.0), 50 mM MgC12, and 2 mM ATP.
as §3
A 1 mg/mL stock solution of MurC is prepared in a buffer consisting of 20 mM Tris/HCl (pH 8.5) with 2.5 μM BME. The stock solution is further diluted with the buffer to give a final enzyme concentration of 100 μg/mL for the E. coli stock solution and 70 μg/mL for the S. aureus stock solution.
as §4, §5, §6
The stop solution is prepared by stirring 1 part 4.2% ammonium molydbate in 4N HCl with 2 parts 0.045% malachite green for 30 min.
In this evaluation, the inhibitory activity of a test compound against MurC, the enzyme which catalyzes the third step of bacterial cell wall bioxynthesis is determined. Experiments are performed by adding 2.5 μl buffer, 2.5 μl 0.5M NH4SO2, 5 μl 2 μM L-Ala, 5 μl enzyme solution and 6.5 μl test compound solution to each well in a 96-well microplate. After a pre-incubation period of 10 mins. at 23° C., 3.75 μl of a 0.75 μM solution of UDP-MurNac is added to each well. Following an incubation period of 10 mins. at 37° C., 210 μl stop solution and 50 μl of a 34% w/v sodium citrate solution are added and color is allowed to develop for 10 mins. at 23° C. (Lanzetta et al., Analytical Biochemistry, 1979, 95) Optical density readings are taken at 660 nm using a Molecular Devices Spectra Max 250 with Soft Max software. Controls are performed using the same procedure and omitting the addition of UDP-MurNac.
Using these values the IC50 is determined by linear regression analysis.

[4] = system: Streptococci; assay: Minimum inhibitory concentration, microdilution broth method, streptococci; format: cell-based; settings: S. pneumo GC 1894; Mueller-Hinton broth with 5% horse blood, 18-22 hours at 35° C.
Experimental: as §1, §2

[5] = target: E. coli UDP-N-acetylglucosamine enolpyruvoyl transferase, MurA (Escherichia coli, UniProt P0A749); assay: biochemical; settings: (E) E. coli enzyme
E. coli UDP-N-acetylglucosamine enolpyruvoyl transferase, MurA, sequence (P0A749 whole entry): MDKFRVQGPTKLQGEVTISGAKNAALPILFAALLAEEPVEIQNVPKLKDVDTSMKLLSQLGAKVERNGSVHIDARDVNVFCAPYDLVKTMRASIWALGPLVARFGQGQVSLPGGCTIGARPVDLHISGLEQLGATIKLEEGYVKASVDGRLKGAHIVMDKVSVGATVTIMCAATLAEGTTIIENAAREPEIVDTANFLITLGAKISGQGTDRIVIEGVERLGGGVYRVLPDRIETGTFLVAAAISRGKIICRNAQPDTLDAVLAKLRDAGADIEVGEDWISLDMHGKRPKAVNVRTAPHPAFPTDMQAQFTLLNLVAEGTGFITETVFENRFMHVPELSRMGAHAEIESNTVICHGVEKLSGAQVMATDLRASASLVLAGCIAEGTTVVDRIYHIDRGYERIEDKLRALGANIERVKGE
Experimental: Evaluation of the Inhibitory Activity of Test Compounds Against Enzymes which Catalyze Bacterial Cell Wall Biosynthesis
S. aureus and E. coli UDP-N-acetylglucosamine enolpyruvoyl transferase, MurA
as §3
The enzyme solution is prepared by admixing the following: 50 mM Tris/HCl pH 8.0, […] 1 M Tris, 5 mM DTT, […] 1 M DTT, 20% Glycerol 4 ml 50% Glycerol, add water to 10 ml.
as §6
A procedure similar to that described by C. […] Experiments are performed by adding a solution of test compound (in a mixture of dimethylsulfoxide and water) and an enzyme solution to a well. After a pre-incubation period of 10 mintues at 37° C., Tris/BME buffer and assay buffer are added. A start point optical density (OD0) reading is taken at 340 nm immediately following the addition of assay buffer. After incubation for 1 hr at 37° C., the stop solution is added and the color is allowed to develop for 30 minutes.

[6] = target: E. coli Enopyruvyl-UPD-N-acetylglucosamine reductase, Mur B (Escherichia coli, UniProt P08373); assay: biochemical; settings: (E) E. coli enzyme; for IC50: read-out: MurB IC50 (converted)
E. coli Enopyruvyl-UPD-N-acetylglucosamine reductase, Mur B, sequence (P08373 whole entry): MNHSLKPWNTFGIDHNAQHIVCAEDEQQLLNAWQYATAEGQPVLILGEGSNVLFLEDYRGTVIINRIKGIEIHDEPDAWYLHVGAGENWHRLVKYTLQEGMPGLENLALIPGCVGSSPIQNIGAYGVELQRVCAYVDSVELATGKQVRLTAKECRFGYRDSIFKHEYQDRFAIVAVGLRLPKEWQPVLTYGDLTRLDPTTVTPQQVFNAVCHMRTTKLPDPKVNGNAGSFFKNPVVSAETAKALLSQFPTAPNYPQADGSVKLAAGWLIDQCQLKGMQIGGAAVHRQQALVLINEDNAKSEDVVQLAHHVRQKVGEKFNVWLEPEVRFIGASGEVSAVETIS
Experimental: S. aureus and E. coli Enopyruvyl-UPD-N-acetylglucosamine reductase, Mur B
Preparation of Tris/BME buffer:
Dilute 17.5 uL of aqueous 5 mM BME (2-mercaptoethanol) to 50 mL with 50 mM Tris/HCl (pH 8.0).
as §3
Dilute aqueous MurB stock solution (0.94 mg/mL) with 200 parts 50 mM Tris/2-BME buffer.
Synthesis of Substrate for MurB (MurA Product EP-UDP-GluNAc):
A mixture of 13 mg UDP-N-acetylglucosamine and 5.5 mg phosphoenolpyruvate are dissolved in 10 mL Tris/BME buffer forming 2 mM concentrations of each reagent in solution.
Preparation of Assay Buffer:
The assay buffer is prepared in water from reagents with the following final concentrations: 100 mM Tris/HCl (pH 8.0), 200 μM NADPH, 100 μM MurB substrate, 10 μM 2-mercaptoethanol, and 10 μM KCl.
Experiments are performed by adding 20 μL of a solution of test compound in a mixture of dimethylsulfoxide and water and 30 μL of enzyme solution to a well. After a pre-incubation period of 20 mins. at 23° C., 50 μL of Tris/BME buffer and 100 μL of assay buffer are added. […] Controls are performed using the same procedure and employing 20 μL of a blank dimethylsulfonide and solvent mixture in place of the test compound solution.
Using these values, the IC50 for each test compound is determined by linear regression analysis.

[7] = system: enterococci; assay: Minimum inhibitory concentration, microdilution broth method, enterococci; format: cell-based; settings: Enterococcus faecalis, Mueller-Hinton broth, 18-22 hours at 35° C.
Experimental: as §1, §2

[8] = S. aureus GC 1131, read-out: MIC S. aureus GC 1131
[9] = S. aureus GC 4543, read-out: MIC S. aureus GC 4543
[10] = E. faecalis GC 2242, read-out: MIC E. faecalis GC 2242
[11] = E. faecalis GC 4555, read-out: MIC E. faecalis GC 4555

SMILES	MIC [1, 8]	MIC [1, 9]	IC50 [2]	IC50 [3]	MIC [4]	IC50 [5]	IC50 [6]	MIC [7, 10]	MIC [7, 11]	MurD IC50 [2]	MurC IC50 [3]	MurA IC50 [5]	MurB IC50 [6]
O=C1O/C(=C\c2cccc(C(F)(F)F)c2Cl)C(O)=C1c1ccc(-c2ccccc2)cc1 [Example 113]	1 µg/mL (≈ 2.26 µM)	2 µg/mL (≈ 4.52 µM)	> 56.5 µM	> 56.5 µM	0.25 µg/mL (≈ 0.565 µM)	9.03 µM	6.77 µM	1 µg/mL (≈ 2.26 µM)	4 µg/mL (≈ 9.03 µM)	–	–	–	–
O=C1O/C(=C\c2cccc(C(F)(F)F)c2Cl)C(O)=C1c1ccc(-c2ccccc2)c(F)c1 [Example 114]	1 µg/mL (≈ 2.17 µM)	1 µg/mL (≈ 2.17 µM)	–	–	0.25 µg/mL (≈ 0.543 µM)	–	–	0.5 µg/mL (≈ 1.09 µM)	2 µg/mL (≈ 4.34 µM)	16 (E) μg/mL	10 (E) μg/mL	1 (E) μg/mL	1 (E) μg/mL
CCCc1ccc(-c2ccc(C3=C(O)/C(=C/c4cccc(C(F)(F)F)c4Cl)OC3=O)cc2)cc1 [Example 115]	4 µg/mL (≈ 8.25 µM)	4 µg/mL (≈ 8.25 µM)	> 51.6 µM	> 51.6 µM	0.25 µg/mL (≈ 0.516 µM)	10.3 µM	10.3 µM	0.25 µg/mL (≈ 0.516 µM)	2 µg/mL (≈ 4.12 µM)	–	–	–	–
CC(C)(C)c1ccc(-c2ccc(C3=C(O)/C(=C/c4cccc(C(F)(F)F)c4Cl)OC3=O)cc2)cc1 [Example 116]	8 µg/mL (≈ 16 µM)	8 µg/mL (≈ 16 µM)	> 50.1 µM	> 50.1 µM	< 0.125 µg/mL	6.01 µM	8.02 µM	4 µg/mL (≈ 8.02 µM)	4 µg/mL (≈ 8.02 µM)	–	–	–	–
CCOc1ccc(-c2ccc(C3=C(O)/C(=C/c4cccc(C(F)(F)F)c4Cl)OC3=O)cc2)cc1 [Example 117]	64 µg/mL (≈ 131 µM)	32 µg/mL (≈ 65.7 µM)	> 51.3 µM	> 51.3 µM	0.5 µg/mL (≈ 1.03 µM)	20.5 µM	14.4 µM	8 µg/mL (≈ 16.4 µM)	32 µg/mL (≈ 65.7 µM)	–	–	–	–
O=C1O/C(=C\c2cc(C(F)(F)F)ccc2F)C(O)=C1c1ccc(-c2ccccc2)cc1 [Example 118]	16 µg/mL (≈ 37.5 µM)	16 µg/mL (≈ 37.5 µM)	> 58.6 µM	44.6 µM	4 µg/mL (≈ 9.38 µM)	35.2 µM	42.2 µM	16 µg/mL (≈ 37.5 µM)	32 µg/mL (≈ 75.1 µM)	–	–	–	–
O=C1O/C(=C\c2cc(C(F)(F)F)ccc2F)C(O)=C1c1ccc(-c2ccccc2)c(F)c1 [Example 119]	2 µg/mL (≈ 4.5 µM)	2 µg/mL (≈ 4.5 µM)	–	–	0.5 µg/mL (≈ 1.13 µM)	–	–	2 µg/mL (≈ 4.5 µM)	2 µg/mL (≈ 4.5 µM)	6 (E) μg/mL	2 (E) μg/mL	1 (E) μg/mL	1 (E) μg/mL
CC(C)(C)c1ccc(-c2ccc(C3=C(O)/C(=C/c4cc(C(F)(F)F)ccc4F)OC3=O)cc2)cc1 [Example 120]	16 µg/mL (≈ 33.2 µM)	16 µg/mL (≈ 33.2 µM)	33.2 µM	47.7 µM	0.5 µg/mL (≈ 1.04 µM)	8.29 µM	10.4 µM	4 µg/mL (≈ 8.29 µM)	8 µg/mL (≈ 16.6 µM)	–	–	–	–
